Experimental findings from patent publication US20250127801A1, “BRIDGED TRICYCLIC CARBAMOYLPYRIDONE COMPOUNDS AND USES THEREOF” (priority 2023, published 2025) are described below.

A short description of series [1]: in vitro. Particulars: human; for CC50 at 5 days: uninfected MT-4 cells.
Series [2] deals with HIV-1 (IIIB). The series is described as follows: microbe, parasite or virus in culture. It is filed as cell-based.
The nature of series [3]: physchem. Particulars: 23 °C, thermodynamic from solid; for solubility thermodynamic: fassif; for solubility thermodynamic at 24 h: FaSSIF.
The mark [4] stands for this setting: Human immunodeficiency virus 1, IIIB, MT4, 120 h, read-out: MT4 EC50 (nM).
Setting [5] is: Human immunodeficiency virus 1, MT4, 120 h, HIV-1 (IIIB) replication in MT-4 cells, 5 days incubation, Cell Titer Glo, read-out: MT4 EC50.

In brackets after ≈: the same amount, converted by molar mass. Read-outs that look alike come from different tables or passages of the source.

A word on the EC50: it is the concentration at which the effect is half-maximal. For orientation: solubility (thermodynamic) means solubility found after equilibrating the solid with the medium. For `CC1=NO[C@@]2(CC[C@H](C)N3C[C@H]2n2cc(C(=O)NCc4ccc(F)cc4F)c(=O)c(OCOC(=O)[C@@H]4CC[C@@H]4CN(CC(=O)O)C(=O)OCOP(=O)(O)O)c2C3=O)C1` [Compound 80, N-(((1S,2R)-2-(((((3′S,5S,7′R)-10′-((2,4-difluorobenzyl)carbamoyl)-3,3′-dimethyl-1′,11′-dioxo-1′,4′,5′,11′-tetrahydro-3′H,4H,7′H-spiro[isoxazole-5,6′-[2,7]methanopyrido[1,2-a][1,4]diazonin]-12′-yl)oxy)methoxy)carbonyl)cyclobutyl)methyl)-N-(((phosphonooxy)methoxy)carbonyl)glycine], the CC50 in series [1] came to 10100 nM. In series [2] (setting [4]), the EC50 is 0.785 nM. Also, the solubility (thermodynamic) in series [3] was 4150 µg/mL (≈ 4.94 mM).
For `CC1=NO[C@@]2(CC[C@H](C)N3C[C@H]2n2cc(C(=O)NCc4ccc(F)cc4F)c(=O)c(OC(=O)N(C)c4ncccc4CN(CC(=O)O)C(=O)OCOP(=O)(O)O)c2C3=O)C1` [Compound 6, N-((2-(((((3′S,5S,7′R)-10′-((2,4-difluorobenzyl)carbamoyl)-3,3′-dimethyl-1′,11′-dioxo-1′,4′,5′,11′-tetrahydro-3′H,4H,7′H-spiro[isoxazole-5,6′-[2,7]methanopyrido[1,2-a][1,4]diazonin]-12′-yl)oxy)carbonyl)(methyl)amino)pyridin-3-yl)methyl)-N-(((phosphonooxy)methoxy)carbonyl)glycine], in that order: 10100 nM, 0.917 nM and 4810 µg/mL (≈ 5.58 mM).
`CC1=NO[C@@]2(CC[C@H](C)N3C[C@H]2n2cc(C(=O)NCc4ccc(F)cc4F)c(=O)c(OCOC(=O)OCC4(COP(=O)(O)O)COC(=O)N4C)c2C3=O)C1` (stereo partly drawn) [Compound 55, (((3′S,5S,7′R)-10′-((2,4-difluorobenzyl)carbamoyl)-3,3′-dimethyl-1′,11′-dioxo-1′,4′,5′,11′-tetrahydro-3′H,4H,7′H-spiro[isoxazole-5,6′-[2,7]methanopyrido[1,2-a][1,4]diazonin]-12′-yl)oxy)methyl ((3-methyl-2-oxo-4-((phosphonooxy)methyl)oxazolidin-4-yl)methyl) carbonate]: the CC50 at 5 days in series [1] was 12900 nM. The EC50 in series [2] (setting [5]) came to 2.5 nM. The thermodynamic solubility at 24 h in series [3] came to 5520 µg/mL (≈ 7.05 mM).
The like results for `CC1=NO[C@@]2(CC[C@H](C)N3C[C@H]2n2cc(C(=O)NCc4ccc(F)cc4F)c(=O)c(OCOC(=O)N4CCOC[C@H]4COP(=O)(O)O)c2C3=O)C1` [Compound 64, (((3′S,5S,7′R)-10′-((2,4-difluorobenzyl)carbamoyl)-3,3′-dimethyl-1′,11′-dioxo-1′,4′,5′,11′-tetrahydro-3′H,4H,7′H-spiro[isoxazole-5,6′-[2,7]methanopyrido[1,2-a][1,4]diazonin]-12′-yl)oxy)methyl (3S)-3-((phosphonooxy)methyl)morpholine-4-carboxylate] were, in that order, ≥ 50000 nM, 21.4 nM and 4840 µg/mL (≈ 6.54 mM).
In the case of `CC1=NO[C@@]2(CC[C@H](C)N3C[C@H]2n2cc(C(=O)NCc4ccc(F)cc4F)c(=O)c(OCOC(=O)CC(C)(C)c4c(CC(=O)N5CCOCC5)cc(C)cc4OP(=O)(O)O)c2C3=O)C1` [Compound 58, (((3′S,5S,7′R)-10′-((2,4-difluorobenzyl)carbamoyl)-3,3′-dimethyl-1′,11′-dioxo-1′,4′,5′,11′-tetrahydro-3′H,4H,7′H-spiro[isoxazole-5,6′-[2,7]methanopyrido[1,2-a][1,4]diazonin]-12′-yl)oxy)methyl 3-methyl-3-(4-methyl-2-(2-morpholino-2-oxoethyl)-6-(phosphonooxy)phenyl)butanoate], the CC50 in series [1] was found to be 29000 nM. In addition, the EC50 in series [2] (setting [4]) was 5.78 nM. The compound further yielded a thermodynamic solubility in series [3] of 4640 µg/mL (≈ 5.08 mM).
With `CCCCCCCCCCCCCC(=O)OCc1ccccc1C(=O)Oc1c2n(cc(C(=O)NCc3ccc(F)cc3F)c1=O)[C@@H]1CN(C2=O)[C@@H](C)CC[C@]12CC(C)=NO2` [Compound 92, (3′S,5S,7′R)-10′-((2,4-difluorobenzyl)carbamoyl)-3,3′-dimethyl-1′,11′-dioxo-1′,4′,5′,11′-tetrahydro-3′H,4H,7′H-spiro[isoxazole-5,6′-[2,7]methanopyrido[1,2-a][1,4]diazonin]-12′-yl 2-((tetradecanoyloxy)methyl)benzoate], in series [1], the CC50 at 5 days was ≥ 50000 nM. Moreover, in series [2] (setting [5]), the EC50 turned out to be 4.42 nM. This compound also came in with a solubility (thermodynamic) at 24 h in series [3] of 3 µg/mL (≈ 0.00361 mM).
The compound `CC1=NO[C@@]2(CC[C@H](C)N3C[C@H]2n2cc(C(=O)NCc4ccc(F)cc4F)c(=O)c(OCc4ccccc4OP(=O)(O)O)c2C3=O)C1` [Compound 69, 2-((((3′S,5S,7′R)-10′-((2,4-difluorobenzyl)carbamoyl)-3,3′-dimethyl-1′,11′-dioxo-1′,4′,5′,11′-tetrahydro-3′H,4H,7′H-spiro[isoxazole-5,6′-[2,7]methanopyrido[1,2-a][1,4]diazonin]-12′-yl)oxy)methyl)phenyl dihydrogen phosphate] gave a CC50 in series [1] of 14100 nM. Besides, the EC50 in series [2] (setting [4]) is 1.78 nM. The same compound came in with a solubility (thermodynamic) in series [3] of 5140 µg/mL.
Take `CC1=NO[C@@]2(CC[C@H](C)N3C[C@H]2n2cc(C(=O)NCc4ccc(F)cc4F)c(=O)c(OCOC(=O)N(C)c4ncccc4COP(=O)(O)O)c2C3=O)C1` [Compound 2, (((3′S,5S,7′R)-10′-((2,4-difluorobenzyl)carbamoyl)-3,3′-dimethyl-1′,11′-dioxo-1′,4′,5′,11′-tetrahydro-3′H,4H,7′H-spiro[isoxazole-5,6′-[2,7]methanopyrido[1,2-a][1,4]diazonin]-12′-yl)oxy)methyl methyl(3-((phosphonooxy)methyl)pyridin-2-yl)carbamate]: the CC50 at 5 days in series [1] is 10200 nM. The EC50 in series [2] (setting [5]) worked out at 1.49 nM. In addition, the solubility (thermodynamic) at 24 h in series [3] was found to be 4950 µg/mL (≈ 6.51 mM).
The compound `CC1=NO[C@@]2(CC[C@H](C)N3C[C@H]2n2cc(C(=O)NCc4ccc(F)cc4F)c(=O)c(OCOC(=O)OCCC(C)(C)c4c(CC(=O)N[C@@H](CC(=O)O)C(=O)O)cc(C)cc4OP(=O)(O)O)c2C3=O)C1` [Compound 24, (2-(2-(4-((((((3′S,5S,7′R)-10′-((2,4-difluorobenzyl)carbamoyl)-3,3′-dimethyl-1′,11′-dioxo-1′,4′,5′,11′-tetrahydro-3′H,4H,7′H-spiro[isoxazole-5,6′-[2,7]methanopyrido[1,2-a][1,4]diazonin]-12′-yl)oxy)methoxy)carbonyl)oxy)-2-methylbutan-2-yl)-5-methyl-3-(phosphonooxy)phenyl)acetyl)-L-aspartic acid] returned a CC50 in series [1] of 12300 nM. The EC50 in series [2] (setting [4]) was 1.98 nM. The compound also showed a solubility (thermodynamic) in series [3] of 4900 µg/mL (≈ 4.95 mM).
The like results for `CC1=NO[C@@]2(CC[C@H](C)N3C[C@H]2n2cc(C(=O)NCc4ccc(F)cc4F)c(=O)c(OCc4ccc(OP(=O)(O)O)cn4)c2C3=O)C1` [Compound 71, 6-((((3′S,5S,7′R)-10′-((2,4-difluorobenzyl)carbamoyl)-3,3′-dimethyl-1′,11′-dioxo-1′,4′,5′,11′-tetrahydro-3′H,4H,7′H-spiro[isoxazole-5,6′-[2,7]methanopyrido[1,2-a][1,4]diazonin]-12′-yl)oxy)methyl)pyridin-3-yl dihydrogen phosphate] were, in that order, 9300 nM, 1.02 nM and 3470 µg/mL.
For the compound `CC1=NO[C@@]2(CC[C@H](C)N3C[C@H]2n2cc(C(=O)NCc4ccc(F)cc4F)c(=O)c(OCOC(=O)O[C@H]4CCCC[C@H]4OP(=O)(O)O)c2C3=O)C1` [Compound 51, (((3′S,5S,7′R)-10′-((2,4-difluorobenzyl)carbamoyl)-3,3′-dimethyl-1′,11′-dioxo-1′,4′,5′,11′-tetrahydro-3′H,4H,7′H-spiro[isoxazole-5,6′-[2,7]methanopyrido[1,2-a][1,4]diazonin]-12′-yl)oxy)methyl ((1S,2R)-2-(phosphonooxy)cyclohexyl) carbonate], the CC50 at 5 days in series [1] amounted to 21200 nM. The half-maximal effective concentration (EC50) in series [2] (setting [5]) is 2 nM. The compound further returned a solubility (thermodynamic) at 24 h in series [3] of 4400 µg/mL (≈ 5.95 mM).
For `CC1=NO[C@@]2(CC[C@H](C)N3C[C@H]2n2cc(C(=O)NCc4ccc(F)cc4F)c(=O)c(OC(=O)N(C)c4ncc(C(=O)N[C@@H](CC(=O)O)C(=O)O)cc4COP(=O)(O)O)c2C3=O)C1` [Compound 84, (6-(((((3′S,5S,7′R)-10′-((2,4-difluorobenzyl)carbamoyl)-3,3′-dimethyl-1′,11′-dioxo-1′,4′,5′,11′-tetrahydro-3′H,4H,7′H-spiro[isoxazole-5,6′-[2,7]methanopyrido[1,2-a][1,4]diazonin]-12′-yl)oxy)carbonyl)(methyl)amino)-5-((phosphonooxy)methyl)nicotinoyl)-L-aspartic acid], in series [1], the CC50 is ≥ 50000 nM. The EC50 in series [2] (setting [4]) was determined as 38 nM. In addition, the thermodynamic solubility in series [3] turned out to be 5580 µg/mL (≈ 6.27 mM).
Regarding `CC1=NO[C@@]2(CC[C@H](C)N3C[C@H]2n2cc(C(=O)NCc4ccc(F)cc4F)c(=O)c(OCOC(=O)N(C)C[C@@H]4CCCN4)c2C3=O)C1` [Compound 13, (((3′S,5S,7′R)-10′-((2,4-difluorobenzyl)carbamoyl)-3,3′-dimethyl-1′,11′-dioxo-1′,4′,5′,11′-tetrahydro-3′H,4H,7′H-spiro[isoxazole-5,6′-[2,7]methanopyrido[1,2-a][1,4]diazonin]-12′-yl)oxy)methyl methyl(((S)-pyrrolidin-2-yl)methyl)carbamate], the CC50 at 5 days in series [1] came out at 10800 nM. Further, the EC50 in series [2] (setting [5]) is 0.762 nM. Also, the thermodynamic solubility at 24 h in series [3] was found to be 1980 µg/mL (≈ 3.02 mM).
`CC1=NO[C@@]2(CC[C@H](C)N3C[C@H]2n2cc(C(=O)NCc4ccc(F)cc4F)c(=O)c(OC(=O)[C@@H]4CCCN4C(=O)OCOP(=O)(O)O)c2C3=O)C1` [Compound 17, 2-((3′S,5S,7′R)-10′-((2,4-difluorobenzyl)carbamoyl)-3,3′-dimethyl-1′,11′-dioxo-1′,4′,5′,11′-tetrahydro-3′H,4H,7′H-spiro[isoxazole-5,6′-[2,7]methanopyrido[1,2-a][1,4]diazonin]-12′-yl) 1-((phosphonooxy)methyl) (2S)-pyrrolidine-1,2-dicarboxylate]: in series [1], the CC50 at 5 days amounted to 13000 nM. In series [2] (setting [5]), the EC50 stood at 0.93 nM. Further, the solubility (thermodynamic) at 24 h in series [3] amounted to 2540 µg/mL (≈ 3.45 mM).
